“And” between values parts separate entries of the source, which are not always exact repeats. Identical values can stand only once. Like-named read-outs stand apart in the source and are kept apart here.
Tests used:
LCE [1] = assay: Substrate cleavage by LCE; assay type: biochemical; settings: cleavage to drug monophosphate and DMDOP
Excerpt: Das Enzym wird vorzugsweise aus humanen peripheren Blutleukozyten, die zuvor durch PHA oder andere Stimulantien (z.B. Cytokine, etc.) aktiviert wurden, oder aus murinen Nierenzellen isoliert. Aus vorläufigen Untersuchungen ergibt sich ein Molekulargewicht von etwa 120.000 - 160.000, bestimmt nach der SDS-PAGE-Methode. Zellen, die dieses Enzym enthalten, können auf einfache Weise dadurch identifiziert werden, indem sie unter geeigneten Testbedingungen mit einer Lösung von AZT-DMDOPE oder FLT-DMDOPE versetzt werden und die Spaltprodukte AZT-monophosphat bzw. FLT-monophosphat oder DMDOP nachgewiesen werden, beispielsweise durch dünnschichtchromatographische Methoden oder im Fall von radioaktiv markierten Proben durch szintillatographische Verfahren (siehe Beispiele 4 - 7). Im Gegensatz zu den biochemisch verwandten Phospholipasen C oder -D wird das LCE nicht durch bekannte Inhibitoren von Phospholipase C oder -D gehemmt oder durch Aktivatoren von Phospholipase C oder -D aktiviert. Im Gegensatz zu Phospholipase C wird das Enzym durch die Substanz D 609 (Tricyclodecan-9-yl-xanthogenat; C11H15OS2 K) aktiviert, während D 609 Phospholipase C inhibiert.

LCE [2] = assay: Influence of enzyme inhibitors or activators on LCE activity, kidney membrane fraction; assay type: biochemical, Balb/c
Description: Das Pipettierschema ist in der folgenden Tabelle angegeben. Tabelle
Zur Untersuchung der enzymatischen Spaltung in Abhängigkeit von der Substratkonzentration wurde eine Substratstammlösung von 0.98 nmol [^14C]-AZT-DMDOPE und 0.7 nmol AZT-DMDOPE/80 µl Aqua bidest. im LCE-Assay angesetzt. Die verschiedenen Substratkonzentrationen im LCE-Assay wurden durch kontinuierliche Verdopplung bzw. Halbierung des Volumens an Substratlösung eingestellt. Die Ansätze wurden in Glasröhrchen (5 ml) vorgelegt und durch Zugabe der Substratlösung gestartet. Die Inkubation wurde bei 37 °C im Wasserbad unter leichtem Schütteln durchgeführt.
Die Reaktionsansätze des LCE-Assays wurden nach entsprechender Inkubationszeit dem Wasserbad entnommen, und die Reaktion durch Zugabe von 750 µl 2-Propanol gestoppt. Nach gründlicher Durchmischung wurden die Ansätze anschließend mit 700 µl auf Raumtemperatur erwärmtem n-Heptan versetzt. Die Ansätze wurden erneut für 30 sec gut gemischt und zur Beschleunigung der Phasentrennung in der Minifuge T bei 3200 rpm für 15 min bei Raumtemperatur zentrifugiert. Anschließend wurden 500 µl der oberen Phase (n-Heptan) entnommen und in neue Glasröhrchen (5 ml) mit 10 mg Kieselgel 60 H und 200 µl n-Heptan überführt. Die Ansätze wurden für 30 sec gut durchmischt und zur Sedimentation des Kieselgels für 10 min unter oben genannten Bedingungen zentrifugiert. Vom Überstand wurden anschließend 500 µl entnommen und mit 3 ml Szintillationsflüssigkeit versetzt. Die Messung der Radioaktivität erfolgte für 4 min im Flüssigkeits-Szintillations-Analysator. Zur Bestimmung des Absolutwertes an Radioaktivität wurden 200 µl der Substratlösung mit 3 ml Szintillationsflüssigkeit versetzt und unter gleichen Bedingungen im Flüssigkeits-Szintillations-Analysator gemessen.

P3X63Ag8.653-Zellen = assay: Intracellular concentrations of AZT and AZT nucleotides (radioimmunoassay) in thymidine kinase deficient cells; assay type: in vitro ADME; settings: after 48 h
Excerpt: Die Bestimmung der intrazellulären Konzentrationen an AZT und AZT-Nukleotiden in Thymidikinasedefizienten Zellen sollte weitere Erkenntnisse über die intrazelluläre Spaltung der Testsubstanz AZT-DMDOPE liefern. Intrazelluläres AZT kann in diesen Zellen aufgrund eines Mangels an Thymidin-Kinase (TK) nicht in ATZ-MP und somit in das therapeutisch wirksame AZT-TP überführt werden. Die Bestimmung der intrazellulären Konzentrationen an AZT und AZT-Nukleotiden nach Inkubation mit AZT-DMDOPE könnte somit einen weiteren Hinweis auf die Spaltung der Teststubstanz geben.
Hierfür wurden in Gewebekulturschalen (60 x 15 mm) 1 x 10^7 Zellen in RPMI 1640 Komplettmedium I mit 0.03 bzw. 0.3 µg AZT/ml und 1 bzw. 10 µg AZT-DMDOPE/ml über 6, 24 und 48 h inkubiert. Nach Extraktion von AZT und der AZT-Nukleotide und einer Behandlung mit alkalischer Phosphatase wurde die Konzentration an AZT mit Hilfe des Radioimmuno-Assays bestimmt.

[3] = target: virale reverse Transkriptase (RT) (Human immunodeficiency virus type 1 group M subtype B, UniProt P04585); settings: intracellular AZT in non-phosphorylated form; cited from earlier work
stimulierten humanen PBL [4] = assay: Intracellular concentrations of AZT and AZT nucleotides (radioimmunoassay) in stimulated human PBL; settings: for Konzentrationen an AZT und AZT-Nukleotiden nach Abfall bei zunehmender Inkubationszeit: up to 24 h
Excerpt: Zur Bestimmung der intrazellulären Konzentrationen an AZT und/oder AZT-Nukleotiden nach Inkubation mit AZT-DMDOPE bzw. AZT wurden humane PBL aus "Buffy coat" isoliert.
Hierfür wurde "Buffy-coat" von gesunden Spendern gemischt und durch Zentrifugation in einem isotonischen Medium mit einer Dichte von 1.077 g/ml fraktioniert. Da mononukleare Blutzellen (Monozyten und Lymphozyten) eine geringere Dichte als Erythrozyten und polymorphkernige Granulozyten haben, bilden sie einen Ring an der Grenze zwischen Trennmedium und Probe und können mit Hilfe einer Pipette abgenommen werden. Erythrozyten und polymorphkernige Granulozyten sedimentieren aufgrund ihrer höheren Dichte durch das Medium und lassen sich somit von PBL separieren. Zur Stimulation der Zellproliferation wurde Phytohämaglutinin A (Mukoprotein) (PHA-M), der mitogene Lektinextrakt aus der roten Feuerbohne (Phaseolus vulgaris), eingesetzt. Phytohämagglutinin ist eine Familie von 5 Isolektinen, die als Tetramere vorliegen. Die Untereinheiten bestehen aus einem lymphozytenreaktiven Typ-L und einem erythrozytenreaktiven Typ-E. Typ-L hat eine hohe Affinität zu Lymphozytenoberflächenrezeptoren und ist somit verantwortlich für die mitogenen Eigenschaften. Die Stimulation der Lymphozyten wurde in KPMI 1640 Komplettmedium III für 72 h bei 37 °C und 5 % CO2 durchgeführt. Nach Beendigung der Stimulation wurden zur Erhöhung der Zellzahl die Zellen für weitere 24 h in RPMI 1640 Komplettmedium IV kultiviert.
Zur Bestimmung der intrazellulären Konzentrationen an AZT und AZT-Nukleotiden wurden die Zellen in RPMI 1640 Komplettmedium II mit einer Dichte von 1 x 10^6 Zellen/ml in Gewebekulturflaschen (50 ml/25 cm^2) überführt, und in Anwesenheit von 0.03 bzw. 0.3 µg AZT/ml (Charge 15) und 1 bzw. 10 µg AZT-DMDOPE/ml für 1 - 24 h inkubiert.
Die Kulturen wurden anschließend für 1, 3, 6 und 24 h bei 37 °C und 5 % CO2 inkubiert. AZT und seine Nukleotide wurden anschließend mit 60 % Methanol extrahiert. Die extrahierten Nukleotide wurden mit alkalischer Phosphatase quantitativ zu AZT dephosphoryliert, da nur AZT, nicht jedoch die entsprechenden Nukleotide mit Hilfe eines Radioimmuno-Assays detektiert werden kann.
Die Konzentrationen an intrazellulärem AZT, die mit Hilfe des Radioimmuno-Assays bestimmt wurden, setzten sich dementsprechend aus der des AZT und den der AZT-Nukleotide zusammen. Eine separate Quantifizierung der Konzentrationen an AZT-MP, AZT-DP und AZT-TP wurde nicht durchgeführt.
Diese Experimente wurden an stimulierten humanen PBL durchgeführt.
Hierfür wurden Zellsuspensionen mit einer Dichte von 10^6 Zellen/ml mit 1 bzw. 10 µg AZT-DMDOPE/ml für 6 bzw. 24 h bei 37 °C und 5 % CO2 inkubiert.
Zur quantitativen Bestimmung von AZT wurde ein kommerzieller ^125J-AZT RIA Test-Kit verwendet. Puffer und Lösungen wurden gemäß den Angaben des Herstellers angesetzt und im Test-Kit eingesetzt. Die Reaktionsansätze wurden nach untenstehendem Schema (Tab. ) pipettiert, vorsichtig gemischt und für 2 h bei Raumtemperatur inkubiert. Anschließend wurden zur Präzipitation des Komplexes aus ^125J-AZT und des AZT-Antikörpers (aus Kaninchen) 500 µl des Ziege-Anti-Kaninchen-Antikörpers hinzugefügt. Die Ansätze wurden gemischt und erneut bei Raumtemperatur für 30 min inkubiert.

stimulierten humanen PBL [5] = assay: Intracellular decay kinetics of AZT and AZT nucleotides after removal of the incubation solution; assay type: in vitro ADME, human; settings: 24 h preincubation with 0.3 µg AZT/ml, reached 6 h after removal
Description: Stimulierte humane PBL wurden für 24 h mit 0.3 µg AZT/ml bzw. 10 µg AZT-DMDOPE/ml inkubiert. Anschließend wurden 1 x 10^7 Zellen in Gewebekulturflaschen (50 ml/25 cm^2) mit RPMI 1640 Komplettmedium I überführt. Nach 1, 3, 6, 24 und 48 h wurde AZT und die AZT-Nukleotide aus der zellulären Matrix extrahiert. Nach einer Behandlung mit alkalischer Phosphatase wurde mit Hilfe des Radioimmuno-Assays die Konzentration an AZT bestimmt.

[6] = tested on: nichtstimulierten humanen PBL; assay: Intracellular concentrations of AZT and AZT nucleotides (radioimmunoassay) in non-stimulated human PBL; assay type: in vitro ADME
Excerpt: AZT wurden humane PBL aus "Buffy coat" isoliert.

stimulierten PBL = settings: stimulierte PBL, Arner et al., 1992; cited from earlier work
LCE [7] = assay: LCE assay: dependence of AZT-DMDOPE cleavage on EGTA and divalent metal cations; assay type: biochemical, human; settings: for DMDOP / Spezifische Aktivität / Inhibition: Effektor 2 mM, 2 h 37 °C, n = 3; for DMDOP / Spezifische Aktivität: Membranfraktionen stimulierter humaner PBL 0.068 mg/Ansatz; for Inhibition: relative to EGTA, Membranfraktionen stimulierter humaner PBL; for Inhibierung der LCE-Aktivität (in words): divalent metal cations, 2 mM in Example 9
Description: Die Abhängigkeit der enzymatischen Spaitung von AZT-DMDOPE durch das LCE von zweiwertigen Metallkationen wurde mit Membranfraktionen stimulierter humaner PBL als Enzymquelle untersucht.
Die zweiwertigen Metallkationen wurden in einer Konzentration von 2 mM im LCE-Assay eingesetzt. Die Proteinkonzentration wurde mit 0.068 mg/Ansatz festgelegt.
Parallel wurde ein Ansatz mit EGTA mitgeführt. EGTA ist ein spezifischer Komplexbildner für Ca^2+ das essentiell für die Aktivität der Phospholipase C ist. Nach einer Inkubationszeit von 2 h bei 37 °C wurde der Umsatz der Muttersubstanz gemessen und die spezifische Aktivität des LCE bestimmt (folgende Tabelle).

[8] = LCE Membranfraktion Niere (Balb/c)

Molecule: CCCCCCCCCCCCSCC(COP(=O)(O)OC[C@H]1O[C@@H](n2cc(F)c(=O)[nH]c2=O)[C@H](O)[C@@H]1O)OCCCCCCCCCC (stereo partly shown) [5-FU-DMDOPE, (5-Fluoruridin)-5'-phosphorsäure-(3-dodecylmercapto-2-decyloxy)-propylester]
- Spaltung durch LCE (LCE [1]): gespalten

Molecule: O=[N+]([O-])c1cccc2cn[nH]c12 [7-Nitroindazol]
- Einfluß auf LCE-Aktivität (LCE [2]; [8]): keine

Molecule: Cc1cn([C@H]2C[C@H](N=[N+]=[N-])[C@@H](CO)O2)c(=O)[nH]c1=O [AZT, 3'-Desoxy-3'-azidothymidin, reference compound]
- maximale intrazelluläre Konzentrationen an AZT und AZT-Nukleotiden (P3X63Ag8.653-Zellen; 0.03 µg AZT/ml): 0.03 ng/10^6 Zellen
- maximale intrazelluläre Konzentrationen an AZT und AZT-Nukleotiden (P3X63Ag8.653-Zellen; 0.3 µg AZT/ml): 0.31 ng/10^6 Zellen
- inhibitorische Wirkung auf die virale reverse Transkriptase (RT) [3]: keine inhibitorische Wirkung
- maximale Konzentrationen an AZT und AZT-Nukleotiden (stimulierten humanen PBL [4]; incubation with 0.03 µg AZT/ml, reached after 6 h): 2.90 ng/10^6 Zellen
- Konzentrationen an AZT und AZT-Nukleotiden nach Abfall bei zunehmender Inkubationszeit (stimulierten humanen PBL [4]; incubation with 0.03 µg AZT/ml): 2.32 ng/10^6 Zellen
- maximale Konzentrationen an AZT und AZT-Nukleotiden (stimulierten humanen PBL [4]; incubation with 0.3 µg AZT/ml, reached after 3 h): 30.97 ng/10^6 Zellen
- Konzentrationen an AZT und AZT-Nukleotiden nach Abfall bei zunehmender Inkubationszeit (stimulierten humanen PBL [4]; incubation with 0.3 µg AZT/ml): 19.88 ng/10^6 Zellen
- konstanter Wert der intrazellulären Konzentrationen an AZT und AZT-Nukleotiden (stimulierten humanen PBL [5]): 0.40 ng/10^6 Zellen
- intrazelluläre Konzentrationen an AZT und AZT-Nukleotiden ([6]; 0.03 µg AZT/ml): 0.10 ng/10^6 Zellen
- intrazelluläre Konzentrationen an AZT und AZT-Nukleotiden ([6]; 0.3 µg AZT/ml): 0.47 ng/10^6 Zellen

Molecule: Cc1cn([C@H]2C[C@H](N=[N+]=[N-])[C@@H](COP(=O)(O)O)O2)c(=O)[nH]c1=O [AZT-MP, 3'-Desoxy-3'-azidothymidin-monophosphat]
- im Vergleich zu AZT-DP und AZT-TP um Faktor höhere Konzentration an AZT-MP (stimulierten PBL): 40

Molecule: CC(=O)Oc1ccccc1C(=O)O [Acetylsalicylsäur e]
- Einfluß auf LCE-Aktivität (LCE [2]; [8]): keine

Molecule: O=C(O)CN(CCOCCOCCN(CC(=O)O)CC(=O)O)CC(=O)O [EGTA]
- DMDOP (LCE [7]): 84.96 ± 11.18 pmol
- Spezifische Aktivität (LCE [7]): 10.41 ± 1.37 pmol/mg/min
- Inhibition (LCE [7]): ≡ 0%

Molecule: CCCCCCCCCCCCSCC(COP(=O)(O)OC[C@H]1O[C@@H](n2cc(C)c(=O)[nH]c2=O)C[C@@H]1F)OCCCCCCCCCC (stereo partly shown) [FLT-DMDOPE, (3'-Desoxy-3'-fluorthymidin)-5'-phosphorsäure-(3-dodecylmercapto-2-decyloxy)-propylester]
- Spaltung durch LCE (LCE [1]): gespalten

Molecule: Nc1nc2c(ncn2C2OC(COP(=O)(O)OP(O)(=S)OP(=O)(O)O)C(O)C2O)c(=O)[nH]1 (stereo not drawn) [GTP-β-S]
- Einfluß auf LCE-Aktivität (LCE [2]; [8]): keine

Molecule: [Cl][Mn][Cl] [MnCl2]
- DMDOP (LCE [7]): 4.75 ± 0.63 pmol
- Spezifische Aktivität (LCE [7]): 0.58 ± 0.08 pmol/mg/min
- Inhibition (LCE [7]): 94%
- Inhibierung der LCE-Aktivität (in words) (LCE [7]): totalen Hemmung
- Inhibierung der LCE-Aktivität (in words) (LCE [7]; listed as Mn^2+): Inhibierung

Molecule: O=C(NCCCCCCNC(=O)ON=C1CCCCC1)ON=C1CCCCC1 [RHC-80267]
- Einfluß auf LCE-Aktivität (LCE [2]; [8]): keine

Molecule: Nc1ncnc2c1ncn2C1CCCO1 (stereo not shown) [SQ 22536]
- Einfluß auf LCE-Aktivität (LCE [2]; [8]): keine

Molecule: COC[C@H]1OC(=O)c2coc3c2[C@@]1(C)C1=C(C3=O)[C@@H]2CCC(=O)[C@@]2(C)C[C@H]1OC(C)=O [Wortmannin]
- Einfluß auf LCE-Aktivität (LCE [2]): keine

Molecule: CaCl2
- DMDOP (LCE [7]): 50.50 ± 2.13 pmol
- Spezifische Aktivität (LCE [7]): 6.19 ± 0.26 pmol/mg/min
- Inhibition (LCE [7]): 41.0 ± 0.25% and 41.0 ± 2.5%
- Inhibierung der LCE-Aktivität (in words) (LCE [7]): Inhibierung

Molecule: MgCl2
- DMDOP (LCE [7]): 84.36 ± 17.02 pmol
- Spezifische Aktivität (LCE [7]): 10.34 ± 2.08 pmol/mg/min
- Inhibition (LCE [7]): 0%
- Inhibierung der LCE-Aktivität (in words) (LCE [7]): keine Inhibierung

Molecule: Neomycin
- Einfluß auf LCE-Aktivität (LCE [2]; [8]): keine

Molecule: ZnCl2
- Spezifische Aktivität (LCE [7]): 0 pmol/mg/min
- Inhibition (LCE [7]): 100.0%
- Inhibierung der LCE-Aktivität (in words) (LCE [7]): totalen Hemmung
- Inhibierung der LCE-Aktivität (in words) (LCE [7]; listed as Zn^2+): Inhibierung

Reference: EP0791056B1, “LIPID-CLEAVAGE ENZYME COMPLEX” (priority 1994, dated 1996)
